We go through seven compounds from publication PMC4762448 (Journal of biomolecular screening, 2011).

Where two headings read alike, the source gives them in different places.

Assay [1] deals with T1, α7nAChR (Homo sapiens, UniProt P36544). It is filed as cell-based.
The target of assay [2] is T1, α7nAChR. Briefly: LGIC-CNiFER FRET calcium sensor assay in HEK cells, α7nAChR. Type of assay: cell-based.
Another assay deals with T2, 5-HT3A (Homo sapiens, UniProt P46098).
T2 sequence (P46098 24-478): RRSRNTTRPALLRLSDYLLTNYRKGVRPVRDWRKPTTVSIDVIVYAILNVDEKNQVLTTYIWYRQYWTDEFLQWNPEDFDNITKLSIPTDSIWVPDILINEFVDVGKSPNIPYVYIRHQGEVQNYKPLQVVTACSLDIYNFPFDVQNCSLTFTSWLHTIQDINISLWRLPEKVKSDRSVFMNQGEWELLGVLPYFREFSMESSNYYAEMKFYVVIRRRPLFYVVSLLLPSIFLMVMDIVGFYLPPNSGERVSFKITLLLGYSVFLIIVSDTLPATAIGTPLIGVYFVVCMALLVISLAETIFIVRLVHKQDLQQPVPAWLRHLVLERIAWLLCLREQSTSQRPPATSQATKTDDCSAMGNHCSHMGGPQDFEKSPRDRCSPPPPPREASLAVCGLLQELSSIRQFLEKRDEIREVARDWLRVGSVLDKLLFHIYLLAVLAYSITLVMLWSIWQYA
Briefly: LGIC-CNiFER FRET calcium sensor assay in HEK cells, 5-HT3A. Conditions: control at 0.1 μM. It is filed as cell-based.

In the next assay the target is Ls-AChBP (Lymnaea stagnalis, UniProt P58154). Conditions: cited from earlier work.
For assay [3] the following is noted: 125I-Bgt displacement assay; cited from earlier work.
For a further assay, the target named is T3, Ac-AChBP (Aplysia californica, UniProt Q8WSF8).
T3 sequence (Q8WSF8 18-236 limits assumed): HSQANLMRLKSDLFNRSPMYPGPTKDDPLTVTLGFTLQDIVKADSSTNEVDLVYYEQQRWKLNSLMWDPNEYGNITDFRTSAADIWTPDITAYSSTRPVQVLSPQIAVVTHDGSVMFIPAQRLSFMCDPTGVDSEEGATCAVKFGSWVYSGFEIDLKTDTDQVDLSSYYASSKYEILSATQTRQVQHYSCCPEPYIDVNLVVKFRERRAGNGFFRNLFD
Kind of assay: [3H] epibatidine competition scintillation proximity assay, Ac-AChBP. It is filed as binding. Background: Scintillation proximity formats need no separation of bound from free tracer.

Another assay has as its target AcY55W-AChBP (Aplysia californica, UniProt Q8WSF8, Y72W). Briefly: [3H] epibatidine competition scintillation proximity assay, AcY55W-AChBP. Type of assay: binding.
In assay [4] the test system is AChBPs (Ls, Ac, and AcY55W). Kind of assay: [3H] epibatidine competition SPA, the three AChBPs together. Type of assay: binding. To be noted: 10 μM of each compound.
In the next assay the target is α1nAChR (Homo sapiens, UniProt P02708+Q07001). Briefly: LGIC-CNiFER membrane potential dye assay in HEK cells, α1nAChR. Type of assay: cell-based. To be noted: 0.1 µM.
α1nAChR, sequence (P02708 21-457): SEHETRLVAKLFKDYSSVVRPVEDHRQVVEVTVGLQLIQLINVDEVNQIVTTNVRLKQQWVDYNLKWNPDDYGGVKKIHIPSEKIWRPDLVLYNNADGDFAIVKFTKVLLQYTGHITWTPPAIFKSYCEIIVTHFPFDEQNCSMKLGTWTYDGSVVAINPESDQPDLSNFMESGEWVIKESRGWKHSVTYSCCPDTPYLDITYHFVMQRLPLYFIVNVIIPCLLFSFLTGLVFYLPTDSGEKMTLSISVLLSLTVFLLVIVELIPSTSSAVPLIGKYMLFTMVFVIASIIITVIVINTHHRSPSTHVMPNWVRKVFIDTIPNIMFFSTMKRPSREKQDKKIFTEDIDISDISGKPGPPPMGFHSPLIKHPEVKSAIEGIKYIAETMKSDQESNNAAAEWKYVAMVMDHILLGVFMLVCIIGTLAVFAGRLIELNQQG
α1nAChR, sequence (P11230 24-501 partner): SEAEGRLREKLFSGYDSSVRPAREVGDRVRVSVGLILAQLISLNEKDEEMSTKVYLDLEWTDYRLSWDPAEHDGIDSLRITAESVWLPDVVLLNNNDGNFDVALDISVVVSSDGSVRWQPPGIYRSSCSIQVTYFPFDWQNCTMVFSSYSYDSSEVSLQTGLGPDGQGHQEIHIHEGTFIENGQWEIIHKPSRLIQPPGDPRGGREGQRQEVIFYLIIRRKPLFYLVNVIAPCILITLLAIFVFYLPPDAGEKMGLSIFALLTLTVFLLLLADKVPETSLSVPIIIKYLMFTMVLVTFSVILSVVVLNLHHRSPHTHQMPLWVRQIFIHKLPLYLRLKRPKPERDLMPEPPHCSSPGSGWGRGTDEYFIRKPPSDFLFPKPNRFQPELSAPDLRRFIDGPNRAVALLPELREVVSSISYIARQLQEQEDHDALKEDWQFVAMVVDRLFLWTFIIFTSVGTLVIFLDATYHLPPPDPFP
α1nAChR, sequence (Q07001 22-517): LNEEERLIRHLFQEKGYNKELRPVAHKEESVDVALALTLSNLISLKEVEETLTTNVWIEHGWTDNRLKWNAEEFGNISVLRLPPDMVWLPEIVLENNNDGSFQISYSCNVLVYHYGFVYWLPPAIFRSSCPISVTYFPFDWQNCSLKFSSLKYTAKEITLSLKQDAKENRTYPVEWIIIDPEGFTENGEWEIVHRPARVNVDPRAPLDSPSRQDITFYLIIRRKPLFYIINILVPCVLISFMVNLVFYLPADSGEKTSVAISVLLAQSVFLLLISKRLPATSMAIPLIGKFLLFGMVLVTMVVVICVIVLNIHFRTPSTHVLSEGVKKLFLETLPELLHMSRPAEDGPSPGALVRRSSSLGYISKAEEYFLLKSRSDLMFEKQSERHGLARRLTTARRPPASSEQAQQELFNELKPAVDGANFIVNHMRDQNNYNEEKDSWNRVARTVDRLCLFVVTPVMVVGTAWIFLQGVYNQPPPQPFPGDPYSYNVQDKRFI

T1 sequence (P36544 23-502): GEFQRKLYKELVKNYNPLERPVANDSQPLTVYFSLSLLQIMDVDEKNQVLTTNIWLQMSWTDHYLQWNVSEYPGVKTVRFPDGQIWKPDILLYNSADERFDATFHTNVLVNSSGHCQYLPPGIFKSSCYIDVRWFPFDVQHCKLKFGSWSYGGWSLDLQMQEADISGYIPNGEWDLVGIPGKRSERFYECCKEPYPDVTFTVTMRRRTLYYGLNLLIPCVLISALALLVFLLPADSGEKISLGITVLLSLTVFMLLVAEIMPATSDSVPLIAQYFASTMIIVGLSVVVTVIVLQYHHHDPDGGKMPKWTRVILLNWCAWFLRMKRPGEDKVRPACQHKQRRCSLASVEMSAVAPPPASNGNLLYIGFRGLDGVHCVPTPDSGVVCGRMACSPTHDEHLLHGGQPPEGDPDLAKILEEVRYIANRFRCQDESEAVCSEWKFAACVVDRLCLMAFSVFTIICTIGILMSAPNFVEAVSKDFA
Ls-AChBP, sequence (P58154 20-229 limits assumed): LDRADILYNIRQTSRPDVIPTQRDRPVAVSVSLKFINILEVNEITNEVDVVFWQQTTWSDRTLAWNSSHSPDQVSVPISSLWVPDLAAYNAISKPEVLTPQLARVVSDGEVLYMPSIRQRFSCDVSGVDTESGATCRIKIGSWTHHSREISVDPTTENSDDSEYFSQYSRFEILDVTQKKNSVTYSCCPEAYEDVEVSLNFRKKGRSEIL
AcY55W-AChBP, sequence (Q8WSF8 18-236 Y72W limits assumed): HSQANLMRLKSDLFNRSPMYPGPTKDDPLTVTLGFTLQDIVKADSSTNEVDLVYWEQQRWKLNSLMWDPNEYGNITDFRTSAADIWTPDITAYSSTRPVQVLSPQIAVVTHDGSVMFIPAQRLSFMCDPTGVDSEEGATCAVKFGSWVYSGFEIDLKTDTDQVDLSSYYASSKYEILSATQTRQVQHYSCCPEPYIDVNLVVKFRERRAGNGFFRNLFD

In the case of `CCN1C[C@]2(COC(=O)c3ccccc3N3C(=O)C[C@H](C)C3=O)CC[C@H](OC)[C@@]34[C@@H]5C[C@H]6[C@H](OC)[C@@H]5[C@](O)(C[C@@H]6OC)[C@@](O)([C@@H](OC)[C@H]23)[C@@H]14` [MLA, methyllycaconitine], the “inhibition of current response elicited by 100 μM ACh” value at α7nAChR [1] is given as “completely inhibited”. The “percent inhibition, α7nAChR” value on α7nAChR [2] (1 µM) is on record as 79 ± 6.4%. Take `CN1[C@@H]2CC[C@H]1C[C@@H](OC(=O)c1c[nH]c3ccccc13)C2` [Tropocitron]: the “percent inhibition, 5-HT3A” value on 5-HT3A is listed as 96 ± 0.6%. As usually defined, the Kd is the constant that tells how readily two partners part at equilibrium. What is called pKd is the Kd on a negative log10 scale, so that one unit is a factor of ten. For `CC(=O)OCC[N+](C)(C)C` [ACh, acetylcholine], the Kd on Ls-AChBP is 823 nM. Also, the pKd in assay [3] is recorded as 5.5. On to `C[N+]1(C)[C@@H]2CC[C@H]1C[C@@H](OC(=O)C(CO)c1ccccc1)C2` (stereo partly drawn) [Compound 10], for which the Kd worked out at 882 ± 117 nM on Ac-AChBP and 2010 ± 137 nM at AcY55W-AChBP. The “selectivity of antagonism among LGIC-CNiFERs” value on α7nAChR [2] is recorded as “nonselective antagonists”. The “interference with the binding of [3H] epibatidine to BPs (screening)” value in assay [4] was “significant interference”. In the case of `C[N+](C)(C)CCOC(N)=O` [carbamylcholine], the Kd at Ls-AChBP (isothermal titration calorimetry using Ls-AChBP) is 7580 nM. Consider α-Bungarotoxin, for which the “percent inhibition, α1nAChR” value at α1nAChR is listed as 94 ± 0.8%. As to `CN1CCC[C@H]1c1cccnc1` [nicotine], in [3], the negative-log Kd (pKd) is reported as 7.2.
